Data from paper PMC9403545, “Structure based design of effective HtpG-derived vaccine antigens against M. tuberculosis” (Frontiers in Molecular Biosciences, 2022).

Target: T1, HtpGMtb (Mycobacterium tuberculosis, UniProt P9WMJ7)
T1 construct: gene htpG; full-length wild type, recombinant in E. coli BL21(DE3), Ni-NTA and SEC, further ion exchange to remove nucleic acid; homodimer
Experiment: biochemical
Format: binding

T1 sequence (P9WMJ7 whole entry): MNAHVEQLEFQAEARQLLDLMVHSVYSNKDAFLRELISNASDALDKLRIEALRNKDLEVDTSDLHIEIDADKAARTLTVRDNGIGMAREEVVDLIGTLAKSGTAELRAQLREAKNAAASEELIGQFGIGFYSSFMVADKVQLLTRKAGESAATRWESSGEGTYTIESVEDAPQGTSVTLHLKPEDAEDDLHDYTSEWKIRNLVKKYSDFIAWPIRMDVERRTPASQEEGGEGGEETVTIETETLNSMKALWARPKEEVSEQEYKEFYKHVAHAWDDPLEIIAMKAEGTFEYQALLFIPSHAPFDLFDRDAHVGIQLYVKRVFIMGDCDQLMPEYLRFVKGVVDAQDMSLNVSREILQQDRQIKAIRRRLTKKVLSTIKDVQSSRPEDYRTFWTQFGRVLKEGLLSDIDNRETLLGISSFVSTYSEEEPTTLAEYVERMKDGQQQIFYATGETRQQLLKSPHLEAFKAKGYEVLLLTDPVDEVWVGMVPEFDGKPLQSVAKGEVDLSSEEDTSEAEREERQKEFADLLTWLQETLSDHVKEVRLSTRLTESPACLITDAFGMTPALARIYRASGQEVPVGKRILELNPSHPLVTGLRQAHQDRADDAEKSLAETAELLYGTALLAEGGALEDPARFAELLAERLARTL

Row | Compound | Kd
1 | Nc1ncnc2c1ncn2[C@@H]1O[C@H](COP(=O)(O)OP(=O)(O)O)[C@@H](O)[C@H]1O [ADP] | 34 µM
2 | Nc1ncnc2c1ncn2[C@@H]1O[C@H](COP(=O)(O)OP(=O)(O)NP(=O)(O)O)[C@@H](O)[C@H]1O [AMP-PNP] | 45.4 µM
